Consider one cell line from the supplement of paper PMC10307832.

Common to all, as to experiment: relative viability (nuclei count vs DMSO), 5 days (fraction); higher = more cells survive
Compound in assay [1]: Cc1ccc2nc(NCCN)c3ncc(C)n3c2c1 + C[C@]1(O)C[C@@H](c2nc(-c3ccc4ccc(-c5ccccc5)nc4c3)c3c(N)nccn32)C1 [Linsitinib] (partner 1 µM)
Summed up: (§1)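 One day after seeding in 1536-well plates, lung cancer cell lines were dosed by pin tool. Dosing was either single-drug or a fixed anchor-drug dose plus five library-drug doses (not always all listed) in √10 steps. After 5 days, nuclei were stained in one fix-and-stain step and counted on 4× images, and relative viability is the nuclei count of treated wells over that of vehicle wells, given as the median of duplicate plates.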

Compound in assay [2]: Cc1ccc2nc(NCCN)c3ncc(C)n3c2c1 + O=C(c1cc(Cc2n[nH]c(=O)c3ccccc23)ccc1F)N1CCN(C(=O)C2CC2)CC1 [Olaparib] (partner 8 µM)
Summed up:
as §1

Compound in the assay “Salubrinal + Trametinib”: O=C(/C=C/c1ccccc1)NC(NC(=S)Nc1cccc2cccnc12)C(Cl)(Cl)Cl [Salubrinal] + CC(=O)Nc1cccc(-n2c(=O)n(C3CC3)c(=O)c3c(Nc4ccc(I)cc4F)n(C)c(=O)c(C)c32)c1 [Trametinib] (partner 0.02 µM)
Summed up: as §1

Compound in the assay “Salubrinal + Phenformin”: O=C(/C=C/c1ccccc1)NC(NC(=S)Nc1cccc2cccnc12)C(Cl)(Cl)Cl [Salubrinal] + N=C(N)NC(=N)NCCc1ccccc1 [Phenformin] (partner 250 µM)
Summed up: as §1

Consider UMC-11, for which the relative viability in assay [1] (first compound 0.04 µM) is 1.03; in assay [1] (first compound 0.1265 µM), 0.94; in assay [1] (first compound 0.4 µM), 1; in assay [1] (first compound 1.265 µM), 1.12; in assay [1] (first compound 4 µM), 0.956; in assay [2] (first compound 0.04 µM), 0.376. The relative viability was determined as 0.355 in assay [2] (first compound 0.1265 µM); 0.388 in assay [2] (first compound 0.4 µM); 0.35 in assay [2] (first compound 1.265 µM); 0.301 in assay [2] (first compound 4 µM); 0.468 in the assay with Salubrinal + Trametinib (first compound 0.08 µM); 0.749 with Salubrinal + Trametinib (first compound 0.253 µM). In addition, the relative viability with Salubrinal + Trametinib (first compound 0.8 µM) was 0.741; with Salubrinal + Trametinib (first compound 2.53 µM) it was 0.775; with Salubrinal + Trametinib (first compound 8 µM) it was 0.826; in the assay with Salubrinal + Phenformin (first compound 0.08 µM), 0.354; in the assay with Salubrinal + Phenformin (first compound 0.253 µM), 0.354; with Salubrinal + Phenformin (first compound 0.8 µM) it was 0.335. For the same cell line, the values for the relative viability with Salubrinal + Phenformin (first compound 2.53 µM) and with Salubrinal + Phenformin (first compound 8 µM) were 0.332 and 0.299, respectively.
